From ChEMBL document CHEMBL4368895, “Incorporation of an intramolecular hydrogen bonding motif in the side chain of antimalarial benzimidazoles” (Medchemcomm, 2019)
Values after ≈ are worked out from the molar mass of the structure shown.

Tests used:
[1] = Kinetic solubility in pH 7.4 PBS at 0.125 to 8 mM incubated for 2 hrs by turbidimetric kinetic solubility assay; format: physicochemical; details: read-out: Kinetic_solubility
[2] = system: Plasmodium falciparum; test: Antiplasmodium activity against chloroquine-sensitive Plasmodium falciparum NF54 asexual blood stage forms infected in human erythrocytes assessed as reduction in [3H]-hypoxanthine incorporation incubated for 48 hrs by liquid scintillation counting method; format: functional, organism-based
[3] = system: Plasmodium falciparum; test: Antiplasmodium activity against multidrug resistant Plasmodium falciparum K1 asexual blood stage forms infected in human erythrocytes assessed as reduction in [3H]-hypoxanthine incorporation incubated for 48 hrs by liquid scintillation counting method; format: functional, organism-based
[4] = Selectivity index, ratio of IC50 for cytotoxicity in CHO cells to IC50 for antiplasmodium activity against chloroquine-sensitive Plasmodium falciparum NF54 asexual blood stage forms infected in human erythrocytes; format: toxicity, cell-based; details: Chinese hamster, read-out: Ratio IC50
[5] = system: CHO; test: Cytotoxicity in CHO cells assessed as reduction in cell viability by MTT assay; format: cell-based; details: Cricetulus griseus
[6] = system: Hemozoin; test: Inhibition of beta-hematin formation assessed as reduction in hemozoin formation incubated for 5 hrs by NP40 detergent-based assay

Row | Compound | solubility kinetic at 2 h [1] | IC50 [2] | IC50 [3] | selectivity ratio [4] | IC50 [5] | IC50 [6]
1 | CCN(CCNc1nc2ccccc2[nH]1)Cc1cc(OC)ccc1O | 160 µM (≈ 54.5 µg/mL) | 0.32 µM | 3.04 µM | 156 | 50 µM | 489 µM
2 | CCN(CCNc1nc2ccccc2[nH]1)Cc1cc(C#N)ccc1O | 160 µM (≈ 53.7 µg/mL) | 0.968 µM | > 10 µM | 52 | 50 µM | 250 µM
3 | CCN(CCNc1nc2ccccc2[nH]1)Cc1cc(C)ccc1O | > 200 µM | 0.408 µM | 2.43 µM | 60 | 24.5 µM | 4220 µM
4 | CCN(CCNc1nc2ccccc2[nH]1)Cc1cccc(F)c1O | 160 µM (≈ 52.5 µg/mL) | 0.299 µM | 1.49 µM | 167 | 50 µM | 161 µM
5 | CCN(CCNc1nc2ccccc2[nH]1)Cc1cc(Cl)ccc1O | 160 µM (≈ 55.2 µg/mL) | 0.11 µM | 0.762 µM | 228 | 25.1 µM | 125 µM
6 | CCN(CCNc1nc2ccccc2[nH]1)Cc1cc(Cl)cc(Cl)c1O | 160 µM (≈ 60.7 µg/mL) | 0.4 µM | 1.4 µM | 125 | 50 µM | 30 µM
7 | CCN(CCNc1nc2ccccc2[nH]1)Cc1ccc(Cl)cc1O | 160 µM (≈ 55.2 µg/mL) | 0.079 µM | 0.335 µM | 273 | 21.6 µM | 32 µM
8 | CCN(CCNc1nc2ccccc2[nH]1)Cc1cc(F)cc(F)c1O | 140 µM (≈ 48.5 µg/mL) | 0.222 µM | 0.952 µM | 225 | 50 µM | 68 µM
9 | CCN(CCNc1nc2ccccc2[nH]1)Cc1ccccc1O | > 200 µM | 0.474 µM | 2.66 µM | 105 | 50 µM | 452 µM
10 | CCN(CCNc1nc2ccccc2[nH]1)Cc1cccc(Cl)c1O | 160 µM (≈ 55.2 µg/mL) | 0.521 µM | 1.25 µM | 96 | 50 µM | 130 µM
11 | CCN(CCNc1nc2ccccc2[nH]1)Cc1cccnc1O | > 200 µM | > 10 µM | > 10 µM |  | 50 µM | 
12 | CCN(CCNc1nc2ccccc2[nH]1)Cc1ccccc1 | 140 µM (≈ 41.2 µg/mL) | 3.6 µM | 1.88 µM |  |  | 
13 | C[C@H]1[C@H](OC(=O)CCC(=O)O)O[C@@H]2O[C@@]3(C)CC[C@H]4[C@H](C)CC[C@@H]1[C@@]24OO3 [ARTESUNATE] |  | 0.007 µM |  |  |  | 
14 | CC[C@H]1CN2CCc3cc(OC)c(OC)cc3[C@@H]2C[C@@H]1C[C@H]1NCCc2cc(OC)c(OC)cc21 [EMETINE] |  |  |  |  | 0.059 µM | 
